Measurements as given in patent EP0222670A1, “Dissolved composition of (benzo-1,2,4-thiadiazine)-1,1-dioxide” (SHISEIDO COMPANY LIMITED, priority 1985, dated 1987).

Experiment: solubilities of the dioxide in various solvents at room temperature
Format: physicochemical
Design: key: completely and transparently dissolved; x: partially not dissolved, with presence of crystals
Description: The solubilities of 7-chloro-3-methyl-2H[benzo-l,2,4-thiadiazine]-l,l-dioxide in various solvents at room temperature are shown in Table l.
• *l: The dioxide is 7-chloro-3-methyl-2H-[benzo-l,2,4-thiadiazine]-l,l-dioxide • *2: Dipropylene glycol
In the Table, o: completely and transparently dissolved; x: partially not dissolved, with presence of crystals.

solubility of Dioxide in solvent (solvent BA, Dioxide 0.2 % by weight): o | solubility of Dioxide in solvent (solvent BA, Dioxide 1.0 % by weight): o | solubility of Dioxide in solvent (solvent BA, Dioxide 2.0 % by weight): x | solubility of Dioxide in solvent (solvent BA, Dioxide 3.0 % by weight): x | solubility of Dioxide in solvent (solvent BA/IPA = 1/9, Dioxide 0.2 % by weight): o | solubility of Dioxide in solvent (solvent BA/IPA = 1/9, Dioxide 1.0 % by weight): o | solubility of Dioxide in solvent (solvent BA/IPA = 1/9, Dioxide 2.0 % by weight): x | solubility of Dioxide in solvent (solvent BA/IPA = 1/9, Dioxide 3.0 % by weight): x | solubility of Dioxide in solvent (solvent BA/IPA/aqueous alkali solution (pH = 10) = 1/3/6, Dioxide 0.2 % by weight): o | solubility of Dioxide in solvent (solvent BA/IPA/aqueous alkali solution (pH = 10) = 1/3/6, Dioxide 1.0 % by weight): o | solubility of Dioxide in solvent (solvent BA/IPA/aqueous alkali solution (pH = 10) = 1/3/6, Dioxide 2.0 % by weight): o | solubility of Dioxide in solvent (solvent BA/IPA/aqueous alkali solution (pH = 10) = 1/3/6, Dioxide 3.0 % by weight): o | solubility of Dioxide in solvent (solvent DMSO, Dioxide 0.2 % by weight): o | solubility of Dioxide in solvent (solvent DMSO, Dioxide 1.0 % by weight): o | solubility of Dioxide in solvent (solvent DMSO, Dioxide 2.0 % by weight): o | solubility of Dioxide in solvent (solvent DMSO, Dioxide 3.0 % by weight): o | solubility of Dioxide in solvent (solvent DPG (Dipropylene glycol), Dioxide 0.2 % by weight): x | solubility of Dioxide in solvent (solvent DPG (Dipropylene glycol), Dioxide 1.0 % by weight): x | solubility of Dioxide in solvent (solvent DPG (Dipropylene glycol), Dioxide 2.0 % by weight): x | solubility of Dioxide in solvent (solvent DPG (Dipropylene glycol), Dioxide 3.0 % by weight): x | solubility of Dioxide in solvent (solvent Ethyl alcohol, Dioxide 0.2 % by weight): x | solubility of Dioxide in solvent (solvent Ethyl alcohol, Dioxide 1.0 % by weight): x | solubility of Dioxide in solvent (solvent Ethyl alcohol, Dioxide 2.0 % by weight): x | solubility of Dioxide in solvent (solvent Ethyl alcohol, Dioxide 3.0 % by weight): x | solubility of Dioxide in solvent (solvent IPA, Dioxide 0.2 % by weight): o | solubility of Dioxide in solvent (solvent IPA, Dioxide 1.0 % by weight): x | solubility of Dioxide in solvent (solvent IPA, Dioxide 2.0 % by weight): x | solubility of Dioxide in solvent (solvent IPA, Dioxide 3.0 % by weight): x | solubility of Dioxide in solvent (solvent IPA/DPG = 1/1, Dioxide 0.2 % by weight): o | solubility of Dioxide in solvent (solvent IPA/DPG = 1/1, Dioxide 1.0 % by weight): x | solubility of Dioxide in solvent (solvent IPA/DPG = 1/1, Dioxide 2.0 % by weight): x | solubility of Dioxide in solvent (solvent IPA/DPG = 1/1, Dioxide 3.0 % by weight): x | solubility of Dioxide in solvent (solvent IPA/DPG/aqueous alkali solution (pH = 10) = 2/1/1, Dioxide 0.2 % by weight): o | solubility of Dioxide in solvent (solvent IPA/DPG/aqueous alkali solution (pH = 10) = 2/1/1, Dioxide 1.0 % by weight): o | solubility of Dioxide in solvent (solvent IPA/DPG/aqueous alkali solution (pH = 10) = 2/1/1, Dioxide 2.0 % by weight): o | solubility of Dioxide in solvent (solvent IPA/DPG/aqueous alkali solution (pH = 10) = 2/1/1, Dioxide 3.0 % by weight): o
Substance: 7-chloro-3-methyl-2H-[benzo-l,2,4-thiadiazine]-l,l-dioxide
